The record followed here is US6620785B2, “Treatment of Mycobacterial diseases by administration of bactericidal/permeability-increasing protein products” (Xoma Corporation, priority 1993, dated 2003).

The test system of one assay is M. tuberculosis. Description: Bactec growth index assay of M. tuberculosis with rBPI23 and antibiotics (Example 5). Format: cell-based.
In assay [1] the test system is M. tuberculosis (strain H37Ra) induced production of TNF by monocytes/macrophages. The class given is cell-based, human. The conditions noted are these: second test, 4 μg/ml.

Where two headings read alike, the source gives them in different places.

Regarding `NNC(=O)c1ccncc1` [INH, isoniazid], the growth index result in the assay with M. tuberculosis (INH alone, no BPI protein product, 0.006-0.05 μg/ml) was “increases generally began earlier and rose more steeply at lower doses than at higher doses”.

For `CO[C@H]1/C=C/O[C@@]2(C)Oc3c(C)c(O)c4c(O)c(c(/C=N/N5CCN(C)CC5)c(O)c4c3C2=O)NC(=O)/C(C)=C\C=C\[C@H](C)[C@H](O)[C@@H](C)[C@@H](O)[C@@H](C)[C@H](OC(C)=O)[C@@H]1C` [RMP, rifampin], the growth index result in the assay on M. tuberculosis (RMP 0.5 and 1.0 μg/ml, entire test period (day 2 to 18)) is given as “essentially no increase in growth index”.

B1: BPI holoprotein: recombinant human bactericidal/permeability-increasing holoprotein, SEQ ID NOS:1 and 2 (protein)
chain: MRENMARGPCNAPRWVSLMVLVAIGTAVTAAVNPGVVVRISQKGLDYASQQGTAALQKELKRIKIPDYSDSFKIKHLGKGHYSFYSMDIREFQLPSSQISMVPNVGLKFSISNANIKISGKWKAQKRFLKMSGNFDLSIEGMSISADLKLGSNPTSGKPTITCSSCSSHINSVHVHISKSKVGWLIQLFHKKIESALRNKMNSQVCEKVTNSVSSKLQPYFQTLPVMTKIDSVAGINYGLVAPPATTAETLDVQMKGEFYSENHHNPPPFAPPVMEFPAAHDRMVYLGLSDYFFNTAGLVYQEAGVLKMTLRDDMIPKESKFRLTTKFFGTFLPEVAKKFPNMKIQIHVSASTPPHLSVQPTGLTFYPAVDVQAFAVLPNSSLASLFLIGMHTTGSMEVSAESNRLVGELKLDRLLLELKHSNIGPFPVELLQDIMNYIVPILVLPRVNEKLQKGFPLPTPARVQLYNVVLQPHQNFLLFGADVVYK
For the molecule B1, the “inhibition of TNF production” value is “Lesser degrees of inhibition” in assay [1] (3×10^5 to 1×10^7 organisms) and “no inhibition at all” in assay [1] (highest concentration of organisms, one duplicate test).
